Data published in PMC5137965 (Future Science OA, 2016).

Assays:
[1] = Stock and working solution stability; type: physicochemical; conditions: for Short-term stability, %Stability: 8.46 h at room temperature; for Stock solution stability, %Stability: 21 days, stock solutions in methanol stored at refrigerator temperature 1–10°C; for working solutions found stable for: room temperature
Protocol: Separate stock solutions were used to prepare calibration curve (CC) standards and quality (QC) control samples. The prepared stock solutions were protected from light and stored in refrigerator between 1–10°C until use. A fresh working solution of IS (1500.00 ng/ml) was prepared everyday by taking appropriate dilution of the stock solution in methanol:water (50:50 v/v).
Stock solution stability of both analyte and internal standard was carried out for 21 days at refrigerated temperature (1–10°C). Short-term stability both analyte and internal standard was carried out for 8.46 h at room temperature.

[2] = cited from earlier work
[3] = Blood stability (sample collection process stability) at room temperature; type: in vitro ADME, human; conditions: 2.45 h at room temperature
[4] = Stability of spiked human plasma QC samples (bench top, freeze-thaw, autosampler, long-term); type: in vitro ADME; conditions: for Auto sampler stability (100.87 h), %Nominal, stability QC samples: processed samples
[5] = human plasma, low concentration QC

SMILES | Short-term stability, %Stability [1] [%] | Stock solution stability, %Stability [1] [%] | working solutions found stable for [1] [h] | permeability ([2]; inferred from almost complete oral absorption) | Tmax ([2]; oral) [h] | %Stability ([3]; HQC) [%] | %Stability ([3]; LQC) [%] | processed samples stable in auto sampler for ([4]; at 10°C) [h] | Bench top stability during extraction (9.60 h), %Nominal, stability QC samples ([4]; high concentration QC) [%] | bench top stability in matrix ([4]; human plasma, 6.15 h) [%] | comparative freeze-thaw stability at the end of third freeze and thaw cycle ([4]; human plasma, below -15°C and below -50°C) [%] | Freeze thaw stability (three freeze thaw cycles, below -50°C), %Nominal, stability QC samples ([4]; human plasma, high concentration QC) [%] | Bench top stability in matrix (6.15 h), %Nominal, stability QC samples [4, 5] [%] | Freeze thaw stability (three freeze thaw cycles, below -15°C), %Nominal, stability QC samples [4, 5] [%] | Freeze thaw stability (three freeze thaw cycles, below -50°C), %Nominal, stability QC samples [4, 5] [%] | Bench top stability during extraction (9.60 h), %Nominal, stability QC samples ([4]; low concentration QC) [%] | Auto sampler stability (100.87 h), %Nominal, stability QC samples ([4]; high concentration QC) [%] | Auto sampler stability (100.87 h), %Nominal, stability QC samples ([4]; low concentration QC) [%] | stock solution found stable for ([1]; stored in refrigerator between 1 and 10°C) [days]
[2H]c1c([2H])c(C(=O)Nc2ccc(C)c(Nc3nccc(-c4cccnc4)n3)c2)c([2H])c([2H])c1CN1CCN(C)CC1 [imatinib-D4] | 100.96 | 99.15 | 16 | – | – | – | – | – | – | – | – | – | – | – | – | – | – | – | –
Cc1ccc(NC(=O)c2ccc(CN3CCN(C)CC3)cc2)cc1Nc1nccc(-c2cccnc2)n1 [imatinib] | 101.88 | 101.63 | 16 | high permeability | 2 to 4 | 99.27 | 100.72 | 100.87 | 98.96 | 97.75 to 100.23 | 97.45 to 101.41 | 102.3 | 96.03 | 97.16 | 97.03 | 94.80 | 102.61 | 98.34 | 21
